Measured values published in US12234211B2, “Cycloolefin substituted heteroaromatic compounds and their use” (HUTCHISON MEDIPHARMA LIMITED, priority 2017, dated 2025).
Like-named read-outs stand apart in the source and are kept apart here.

Key:
[1] = Determination of solubility in sodium phosphate buffers; type: physicochemical; settings: aqueous buffer, thermodynamic from solid
Method: • Sample standard solution: About 3-5 mg test compound was accurately weighed and added into a 5 mL sample tube, 5 mL DMSO was added. Shaking and sonicating for 1 hour. • pH 2.1 sample solution: About 1 mg test compound was accurately weighed and added into a 1 mL sample tube, 1 mL pH 2.1 sodium phosphate buffer was added. Shaking. Adding test compound to the solution, if the solution is visually clear, till there is obvious insoluble in the solution. Sonicating for 1 hour. • pH 7.4 sample solution: About 1 mg test compound was accurately weighed and added into a 1 mL sample tube, 1 mL pH 7.4 sodium phosphate buffer was added. Shaking. Adding test compound to the solution, if the solution is visually clear, till there is obvious insoluble in the solution. Sonicating for 1 hour. 2. Determination • 1 mL sample standard solution was accurately pipetted into a HPLC tube. The peak area was determined by HPLC. • 0.5 mL pH 2.1 sample solution was filtered by syringe filter and was accurately pipetted into a HPLC tube, and 0.5 mL pH 2.1 sodium phosphate buffer was accurately added. Shaking. The peak area was determined by HPLC. • 0.5 mL pH 7.4 sample solution was filtered by syringe filter and was accurately pipetted into a HPLC tube, and 0.5 mL pH 7.4 sodium phosphate buffer was accurately added. Shaking. The peak area was determined by HPLC. • HPLC condition: • Instrument: Agilent 1200 • Column: Agilent SB-C18 5 u 4.6*150 mm • Mobile phase: • Phase A: Water (containing 0.1% formic acid) • Phase B: MeOH (containing 0.1% formic acid)

[2] = Metabolic stability test in liver microsomes (mouse); type: in vitro ADME; settings: percentage of remaining compound after incubation for 30 minutes vs 0 minute; 1 μM compound; 0.5 mg/mL liver microsomes; 37° C.
Method: (§1) Male CD1 mouse liver microsomes was supplied by Research Institute for Liver Diseases (Shanghai) Co., Ltd. Male SD rat liver microsomes was supplied by BioreclamationIVT in US.
(§2) Phenacetin, glucose-6-phosphate (G-6-P), glucose-6-phosphate dehydrogenase (G-6-PD), and nicotinamide adenine dinucleotide phosphate (NADP) were supplied by Sigma-Aldrich (Missouri, USA).
(§3) 10 mM stock solution of test compound: Certain amount of test compound was weighed and dissolved in certain volume of dimethylsulfoxide (DMSO) to get the stock solution of test compound at 10 mM.
(§4) Reaction termination solution: Certain amount of phenacetin as internal standard was weighed and dissolved in acetonitrile to get the reaction termination solution at 1000 ng/mL, and stored at room temperature for use.
(§5) The stock solution of test compound was diluted to the designated concentration with organic solution (usually the mixtures of acetonitrile, methanol and water with different portions depending on the compound solution) to make the final concentration to be 1 μM and the contents of organic solvents no more than 1% (For DMSO, the controlled margin was 0.1%) in the final incubation system. 100 mM NADP, 500 mM G-6-P and 100 U/mL G-6-PDH were mixed and diluted with ultrapure water to provide the NADPH regenerating system containing 1 mM NADP, 5 mM G-6-P and 1 U/mL G-6-PD, which was pre-incubated at 37° C. water-bath for 10 min and then cooled on ice until being added into the reaction system. 20 mg/mL liver microsomes was mixed with 200 mM PBS and diluted with ultrapure water to make the concentrations of liver microsomes and PBS to be 0.5 mg/mL and 50 mM in the final incubation system, respectively. After the diluted liver microsomes was mixed with the NADPH regenerating solution, certain volumes of 100 mM EDTA and 300 mM MgCl2 (concentration of EDTA and MgCl2 in the final incubation system is 1 mM and 3 mM, respectively) were added, and the incubation system was put into 37° C. water bath. The incubation was commenced by adding the stock solution of test compound and maintained for 30 min. The incubation was terminated by adding the reaction termination solution. The 0 min sample was prepared by adding the reaction termination solution to the incubation system immediately prior to putting the system into the water bath with the addition of the stock solution of test compound. The terminated incubation mixtures were vortexed and centrifuged at 4400 rpm for 10 min, and the supernatant was collected for LC-MS/MS analysis.
(§6) The concentration of test compound was determined using LC-MS/MS method. Using the peak area ratio of the compound and the internal standard as an index, the percentage of remaining compound after incubation for 30 minutes as compared with the 0 minute sample was calculated, and the metabolic stability of the compound was evaluated.

[3] = target: T1, IDH1-R132H (Homo sapiens, UniProt O75874, R132H); test: Fluorescent determination of IDH1-R132H cell activity (2-HG in U87MGR132H cells); type: cell-based; settings: 2-HG inhibition in U87MGR132H cells transfected with IDH1-R132H mutant plasmid
T1 construct: expressed in transfected cells; host or cells: U87MG cells (U87MGR132H)
T1 sequence (O75874 whole entry R132H): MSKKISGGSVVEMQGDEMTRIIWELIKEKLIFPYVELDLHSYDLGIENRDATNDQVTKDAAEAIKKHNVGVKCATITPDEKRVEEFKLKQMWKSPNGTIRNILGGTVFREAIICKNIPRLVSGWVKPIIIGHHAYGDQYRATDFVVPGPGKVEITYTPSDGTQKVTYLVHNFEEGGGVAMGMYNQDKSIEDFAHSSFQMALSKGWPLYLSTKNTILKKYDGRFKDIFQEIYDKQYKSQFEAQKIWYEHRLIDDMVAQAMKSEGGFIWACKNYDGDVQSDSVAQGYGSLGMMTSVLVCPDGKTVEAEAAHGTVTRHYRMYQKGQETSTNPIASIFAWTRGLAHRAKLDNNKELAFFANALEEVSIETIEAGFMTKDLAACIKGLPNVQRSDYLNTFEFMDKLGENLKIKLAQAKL

[4] = target: T2, IDH2-R140Q (Homo sapiens, UniProt P48735, R140Q); test: Fluorescent determination of IDH2-R140Q cell activity (2-HG in U87MGR140Q cells); type: cell-based; settings: 72 hours incubation, read-out: IC50 (2-HG inhibition)
T2 construct: expressed in transfected cells
T2 sequence (P48735 40-452 R140Q): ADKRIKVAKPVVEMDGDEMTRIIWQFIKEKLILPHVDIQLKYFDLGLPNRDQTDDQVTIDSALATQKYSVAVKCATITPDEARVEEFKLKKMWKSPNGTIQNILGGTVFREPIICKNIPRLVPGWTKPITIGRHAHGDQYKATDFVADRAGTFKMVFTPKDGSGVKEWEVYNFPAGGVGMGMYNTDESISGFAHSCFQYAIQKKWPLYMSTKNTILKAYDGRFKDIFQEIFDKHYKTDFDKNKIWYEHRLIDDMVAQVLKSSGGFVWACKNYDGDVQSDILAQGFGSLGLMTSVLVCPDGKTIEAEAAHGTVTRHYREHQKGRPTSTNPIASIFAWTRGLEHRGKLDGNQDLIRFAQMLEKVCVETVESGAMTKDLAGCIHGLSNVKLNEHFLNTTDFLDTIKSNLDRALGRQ

[5] = Metabolic stability test in liver microsomes (rat); type: in vitro ADME; settings: percentage of remaining compound after incubation for 30 minutes vs 0 minute; 1 μM compound; 0.5 mg/mL liver microsomes; 37° C.
Method: as §1, §2, §3, §4, §5, §6

| Structure (SMILES) | solubility at 1 h ([1]; pH 2.1 sodium phosphate buffer, read-out: Solubility pH 2.1) [µg/mL] | solubility at 1 h ([1]; pH 7.4 sodium phosphate buffer, read-out: Solubility pH 7.4) [µg/mL] | Mouse liver microsome stability [2] [%] | IC50 [3] [nM] | IC50 [4] [nM] | Rat liver microsome stability [5] [%] |
| --- | --- | --- | --- | --- | --- | --- |
| C[C@@H](Nc1nc(NCc2ccccn2)nc(C2=C(F)C(O)C(F)(F)CC2)n1)C(F)(F)F (mixture of isomers) [Compound 271] | 974 | 124 |  |  |  |  |
| C[C@@H](Nc1nc(N[C@H](C)C(F)(F)F)nc(C2=C(F)C(O)CCC2)n1)C(F)(F)F (mixture of isomers) [Compound 2] |  |  | 83.8 | 365 | 137 | 99.0 |
| C[C@@H](Nc1nc(N[C@H](C)C(F)(F)F)nc(C2=C(F)C(O)C(F)CC2)n1)C(F)(F)F (single isomer, unassigned) [Compound 98] |  |  | 83.7 | 254 | 344 | 99.2 |
| [2H]C1([2H])CCC(c2nc(N[C@@H](C)C(F)(F)F)nc(N[C@@H](C)C(F)(F)F)n2)=C(F)C1O (stereo partly drawn) [Compound 87] |  |  | 88.5 | 781 | 205 | 97.9 |
| [2H]C1(O)C(F)=C(c2nc(N[C@H](C)C(F)(F)F)nc(N[C@H](C)C(F)(F)F)n2)CCC1(F)F (mixture of isomers) [Compound 211] |  |  | 99.7 | 175 | 97 | 98.8 |
| C[C@@H](Nc1nc(N[C@H](C)C(F)(F)F)nc(C2=C(F)C(O)C(F)(F)CC2)n1)C(F)(F)F (single isomer, unassigned) [Compound 197] |  |  | 98.4 | 120 | 41 | 99.5 |
| [2H]C1([2H])CCC(c2nc(NC3CC(F)(F)C3)nc(NC3CC(F)(F)C3)n2)=C(F)C1O (stereo not drawn) [Compound 85] |  |  | 64.0 | 207 | 35 | 78.1 |
| OC1C(F)=C(c2nc(NC3CC(F)(F)C3)nc(NC3CC(F)(F)C3)n2)CCC1(F)F (stereo not drawn) [Compound 203] |  |  | 91.3 | 733 | 98 | 92.1 |
| CC(C)Nc1nc(N[C@H](C)C(F)(F)F)nc(C2=C(F)C(O)C(F)CC2)n1 (single isomer, unassigned) [Compound 95] |  |  | 80.1 | 317 | 43 | 74.8 |
| [2H]C1(O)CCCC(c2nc(NC3CC(F)(F)C3)nc(NC3CC(F)(F)C3)n2)=C1F (stereo not drawn) [Compound 19] |  |  | 66.2 | 421 | 83 | 83.8 |
| C[C@@H](Nc1nc(N[C@H](C)C(F)(F)F)nc(C2=C(F)C(O)C(F)(F)CC2)n1)C(F)(F)F (mixture of isomers) [Compound 196] |  |  | 95.2 | 210 | 94 | 100.0 |
| OC1CCCC(c2nc(NC3CC(F)(F)C3)nc(NC3CC(F)(F)C3)n2)=C1F (stereo not drawn) [Compound 5] |  |  | 58.6 | 869 | 93 | 76.8 |

Further lines, results first:

| solubility at 1 h ([1]; pH 2.1 sodium phosphate buffer, read-out: Solubility pH 2.1) [µg/mL] | solubility at 1 h ([1]; pH 7.4 sodium phosphate buffer, read-out: Solubility pH 7.4) [µg/mL] | Mouse liver microsome stability [2] [%] | IC50 [3] [nM] | IC50 [4] [nM] | Rat liver microsome stability [5] [%] | Structure (SMILES) |
| --- | --- | --- | --- | --- | --- | --- |
|  |  | 91.8 | 344 | 46 | 93.0 | C[C@H](Nc1nc(NC2CC(F)(F)C2)nc(C2=C(F)C(O)C(F)(F)CC2)n1)C(F)(F)F (mixture of isomers) [Compound 239] |
|  |  | 49.8 | 1500 | 87 | 50.3 | C[C@@H](Nc1nc(NC2CCC2)nc(C2=C(F)C(O)CCC2)n1)C(F)(F)F (mixture of isomers) [Compound 7] |
|  |  | 76.3 | 670 | 115 | 70.0 | C[C@@H](Nc1nc(NC2CCC(F)(F)C2)nc(C2=C(F)C(O)CCC2)n1)C(F)(F)F (mixture of isomers) [Compound 6] |
|  |  | 65.4 | 1140 | 131 | 82.6 | CC(C)Nc1nc(N[C@H](C)C(F)(F)F)nc(C2=C(F)C(O)C(F)(F)CC2)n1 (stereo partly drawn) [Compound 94, 2,6,6-Trifluoro-3-(4-(isopropylamino)-6-(((R)-1,1,1-trifluoropropan-2-yl)amino)-1,3,5-triazin-2-yl)cyclohex-2-en-1-ol] |
|  |  | 75.5 | 246 | 130 | 89.0 | C[C@@H](Nc1nc(N[C@@H]2CCC(F)(F)C2)nc(C2=C(F)C(O)C(F)(F)CC2)n1)C(F)(F)F (mixture of isomers) [Compound 235] |
|  |  | 76.3 | 70 | 40 | 86.6 | C[C@@H](Nc1nc(N[C@@H]2CCC(F)(F)C2)nc(C2=C(F)C(O)C(F)CC2)n1)C(F)(F)F (single isomer, unassigned) [Compound 232] |
|  |  | 28.7 | 203 | 64 | 49.8 | OC1C=C(c2nc(NC3CC(F)(F)C3)nc(NC3CC(F)(F)C3)n2)CCC1 (stereo not drawn) [Compound 127] |
|  |  | 58.2 | 289 | 86 | 79.8 | C[C@@H](Nc1nc(N[C@H](C)C(F)(F)F)nc(C2=CC(O)CCC2)n1)C(F)(F)F (mixture of isomers) [Compound 126] |
|  |  | 31.0 | 94 | 46 | 45.9 | C[C@@H](Nc1nc(NC2CCC(F)(F)C2)nc(C2=CC(O)CCC2)n1)C(F)(F)F (mixture of isomers) [Compound 177] |
|  |  | 81.4 | 81 | 48 | 88.8 | C[C@@H](Nc1nc(NC2CC(F)(F)C2)nc(C2=C(F)C(O)C(F)CC2)n1)C(F)(F)F (single isomer, unassigned) [Compound 227] |
|  |  | 82.1 | 750 | 80 | 62.9 | CC(Nc1nc(NC2CC(F)(F)C2)nc(C2=C(F)C(O)CCC2)n1)C(F)(F)F (racemic) [Compound 4] |
